Reference: patent US20210259949A1, “USE OF A BIXA ORELLANA EXTRACT” (BASF Beauty Care Solutions France SAS, priority 2018, published 2021)

System: IGFBP3 protein
Experiment: Quantification of IGFBP3 protein by ELISA in supernatant of normal human keratinocytes
Format: cell-based
Details: IGF-1 at 100 ng/ml, 24 h, related to non-treated cells (100), NS
Experimental: Normal human keratinocytes were cultured up to 70% confluence, then treated for 24 h with IGF-1 at 100 ng/ml or the Bixa orellana extract obtained according to Example 1a) before mixing with maltodextrin and spray-drying at 0.1% or 0.05% (w/w in the total medium) for 24 h. The cells are lysed for assaying the DNA, and the supernatant is used for the quantification of the IGFBP3 protein by ELISA according to the protocol of the supplier of the ELISA kit (LSBio Human IGFBP3 ELISA Kit ref LS-F24538 lot 103180).
The results are related to non-treated cells. A statistical t-test test is carried out, and the means are compared.

## IGF-1: growth factor insulin-like growth factor type 1 (IGF1), used at 100 ng/ml
  IGFBP3 protein, Mean: 128.195
